This is an account of results in patent US20250092065A1, “2-(INDAZOL-5-YL)-6-(PIPERIDIN-4-YL)-1,7-NAPHTHYRIDINE DERIVATIVES AND RELATED COMPOUNDS AS MODULATORS FOR SPLICING NUCLEIC ACIDS AND FOR THE TREATMENT OF PROLIFERATIVE DISEASES” (REMIX THERAPEUTICS INC., priority 2022, published 2025).

One test concerns MYB. The test is described as follows: HiBiT protein abundance assay, MYB (K562 HiBiT knock-in). The class given is cell-based, human. Conditions: HiBiT knock-in K562 cells, 24 hours, top dose 10 μM. The gist of the method:
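K562 HiBiT knock-in, 24 h, 37 °C, top 10 μM final, 3-fold ×10, DMSO ≤0.25%. Lytic HiBiT luminescence; PC = parental K562, NC = DMSO; 4PL IC50.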

The next test deals with Target C. The test is described as follows: RT-qPCR canonical junction panel assay, Target C mRNA. Conditions: Table 4, read-out: Target C IC50 (decrease in CJ mRNA levels). The class given is cell-based. The essentials:
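A673 or K562 cells treated with compound; CJ mRNA quantified by junction-spanning RT-qPCR probe after cDNA synthesis, normalised to GAPDH, GUSB or PPIA and DMSO (2^−ΔΔCt), scaled to set ΔCt assay window; IC50 from 4-parameter fit of CJ decrease.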
(Real-time PCR tracks product formation cycle by cycle.)

Usually IC50 stands for the concentration that inhibits the measured activity by half.

Take `Cn1cc2cc(-c3ccc4nc(N5CC[C@@H](NC6CC(F)(F)C6)C5)ccc4n3)c(O)cc2n1` [Compound 385]: the IC50 with MYB and with Target C was 0.1 to 1 µM each time.
In the case of `Cn1cc2cc(-c3ccc4nc(N5CCC(NCC6CC6)C5)ccc4n3)c(O)c(F)c2n1` (stereo not drawn) [Compound 387, 5-(6-{3-[(cyclopropylmethyl)amino]pyrrolidin-1-yl}-1,5-naphthyridin-2-yl)-7-fluoro-2-methylindazol-6-ol], the IC50 with MYB and with Target C was less than 0.1 µM each time.
As to `CC(C)NC1CCN(c2ccc3nc(-c4cc5cn(C)nc5c(F)c4O)ccc3n2)C1` (stereo not drawn) [Compound 388, 7-fluoro-5-{6-[3-(isopropylamino)pyrrolidin-1-yl]-1,5-naphthyridin-2-yl}-2-methylindazol-6-ol], the IC50 in the test with MYB and in the test on Target C was less than 0.1 µM in each case.
As to `Cc1nc2cc(O)c(-c3ccc4nc(N5CCC(NCC6CC6)C5)ccc4n3)cc2o1` (stereo not drawn) [Compound 389, 6-(6-{3-[(cyclopropylmethyl)amino]pyrrolidin-1-yl}-1,5-naphthyridin-2-yl)-2-methyl-1,3-benzoxazol-5-ol], the IC50 in the test on MYB was less than 0.1 µM; in the test on Target C, 0.1 to 1 µM.
Taken in the same sequence, the figures for `Cc1nc2c(C)c(O)c(-c3ccc4nc(N5CCC(NCC6CC6)C5)ccc4n3)cc2o1` (stereo not drawn) [Compound 390, 6-(6-{3-[(cyclopropylmethyl)amino]pyrrolidin-1-yl}-1,5-naphthyridin-2-yl)-2,4-dimethyl-1,3-benzoxazol-5-ol] were less than 0.1 µM and less than 0.1 µM.
The corresponding values for `CNC1CCN(c2ccc3nc(-c4cc(F)c5nc(C)cn5c4)ncc3n2)C1` (stereo not drawn) [Compound 393, 1-(2-{8-fluoro-2-methylimidazo[1,2-a]pyridin-6-yl}pyrido[3,2-d]pyrimidin-6-yl)-N-methylpyrrolidin-3-amine] are less than 0.1 µM and 0.1 to 1 µM.
For the molecule `Cc1c(O)c(-c2ncc3nc(C4CCNC4)ccc3n2)cc2cn(C)nc12` (stereo not drawn) [Compound 397, 2,7-dimethyl-5-[6-(pyrrolidin-3-yl)pyrido[3,2-d]pyrimidin-2-yl]indazol-6-ol; trifluoroacetic acid], the results for the IC50 with MYB and with Target C were 0.1 to 1 µM and more than 10 µM, respectively.
Taken in the same sequence, the figures for `Cc1c(O)c(-c2ncc3nc([C@H]4CCNC4)ccc3n2)cc2cn(C)nc12` [Compound 399] were 1 to 10 µM and more than 10 µM.
Taken in the same sequence, the figures for `Cn1cc2cc(-c3ncc4nc(C5CCNCC5)ccc4n3)c(O)c(C#N)c2n1` [Compound 403, 6-hydroxy-2-methyl-5-[6-(piperidin-4-yl)pyrido[3,2-d]pyrimidin-2-yl]indazole-7-carbonitrile; trifluoroacetic acid] were less than 0.1 µM and 1 to 10 µM.
`Cn1cc2cc(-c3ccc4nc(N5CCC(NC(C)(C)C)C5)ncc4n3)c(O)cc2n1` (stereo not drawn) [Compound 404, 5-{2-[3-(tert-butylamino)pyrrolidin-1-yl]pyrido[3,2-d]pyrimidin-6-yl}-2-methylindazol-6-ol]: the concentration for half-maximal inhibition (IC50) in the test with MYB is 0.1 to 1 µM; with Target C, less than 0.1 µM.
The corresponding values for `COc1cc(-c2ccc3nc(N4CCC(NC(C)(C)C)C4)ncc3n2)cnn1` (stereo not drawn) [Compound 405, N-tert-butyl-1-[6-(6-methoxypyridazin-4-yl)pyrido[3,2-d]pyrimidin-2-yl]pyrrolidin-3-amine] are 1 to 10 µM and 1 to 10 µM.
Taken in the same sequence, the figures for `CN[C@H]1CCN(c2ccc3nc(-c4cc(C#N)c5nc(C)cn5c4)ncc3n2)C1` [Compound 406, 2-methyl-6-{6-[(3S)-3-(methylamino)pyrrolidin-1-yl]pyrido[3,2-d]pyrimidin-2-yl}imidazo[1,2-a]pyridine-8-carbonitrile] were 0.1 to 1 µM and 1 to 10 µM.
The corresponding values for `CN[C@@H]1CCN(c2ccc3nc(-c4cc(C#N)c5nc(C)cn5c4)ncc3n2)C1` [Compound 407, 2-methyl-6-{6-[(3R)-3-(methylamino)pyrrolidin-1-yl]pyrido[3,2-d]pyrimidin-2-yl}imidazo[1,2-a]pyridine-8-carbonitrile] are 0.1 to 1 µM and 1 to 10 µM.
For `Cc1nc2cc(O)c(-c3ccc4nc(N5CCNCC5)ccc4n3)cc2o1` [Compound 408, 2-methyl-6-[6-(piperazin-1-yl)-1,5-naphthyridin-2-yl]-1,3-benzoxazol-5-ol], the IC50 was 0.1 to 1 µM in the test on MYB and 1 to 10 µM in the test on Target C.
Regarding `Cc1nc2cc(O)c(-c3ccc4nc(N5CCN[C@@H](C)C5)ccc4n3)cc2o1` [Compound 409], the results for the 50% inhibitory concentration (IC50) in the test on MYB and in the test with Target C were 0.1 to 1 µM and 1 to 10 µM, respectively.
As for `Cc1nc2cc(O)c(-c3ccc4nc(N5CCN6CCCC6C5)ccc4n3)cc2o1` (stereo not drawn) [Compound 410], the 50% inhibitory concentration (IC50) in the test on MYB and in the test with Target C was 0.1 to 1 µM throughout.
`Cc1nc2cc(O)c(-c3ccc4nc(N5CCNC6(CC6)C5)ccc4n3)cc2o1` [Compound 411]: the IC50 in the test on MYB fell in the range of 0.1 to 1 µM; in the test on Target C it was 1 to 10 µM.
With `Cc1nc2cc(O)c(-c3ccc4nc(N5CCC(NC(C)(C)C)CC5)ccc4n3)cc2o1` [Compound 412], the IC50 in the test with MYB and with Target C was 0.1 to 1 µM each time.
Take `Cc1nc2cc(O)c(-c3ccc4nc(N5CC[C@@H](NC(C)(C)C)C5)ncc4n3)cc2o1` [Compound 413, 6-{2-[(3R)-3-(tert-butylamino)pyrrolidin-1-yl]pyrido[3,2-d]pyrimidin-6-yl}-2-methyl-1,3-benzoxazol-5-ol]: the IC50 in the test with MYB and with Target C was less than 0.1 µM throughout.
As to `Cc1nc2cc(O)c(-c3ccc4nc(N5CC[C@H](NC(C)(C)C)C5)ncc4n3)cc2o1` [Compound 414, 6-{2-[(3S)-3-(tert-butylamino)pyrrolidin-1-yl]pyrido[3,2-d]pyrimidin-6-yl}-2-methyl-1,3-benzoxazol-5-ol], the concentration for half-maximal inhibition (IC50) in the test with MYB and with Target C was 1 to 10 µM in each case.
In the case of `Cc1nc2c(C)c(O)c(-c3ccc4nc(N5CC[C@H](NC(C)C)C5)ncc4n3)cc2o1` [Compound 416, 6-{2-[(3S)-3-(isopropylamino)pyrrolidin-1-yl]pyrido[3,2-d]pyrimidin-6-yl}-2,4-dimethyl-1,3-benzoxazol-5-ol], the concentration for half-maximal inhibition (IC50) in the test with MYB and in the test on Target C was less than 0.1 µM in each case.
On to `Cc1nc2cc(O)c(-c3ccc4cc(N5CC[C@@H](NC(C)(C)C)C5)ncc4n3)cc2o1` [Compound 417], for which the IC50 in the test on MYB was less than 0.1 µM; in the test on Target C, 1 to 10 µM.
The corresponding values for `Cc1nc2cc(O)c(-c3ccc4nc(N5CCN[C@@H](C6CC6)C5)ccc4n3)cc2o1` [Compound 418] are 0.1 to 1 µM and 0.1 to 1 µM.
As for `Cc1nc2cc(O)c(-c3ccc4nc(N5C[C@@H](C)N[C@@H](C6CC6)C5)ccc4n3)cc2o1` [Compound 419], the IC50 with MYB and in the test on Target C was 0.1 to 1 µM in each case.
Turning to `Cc1nc2cc(O)c(-c3ccc4nc(N5C[C@@H](C)N[C@@H](C)C5)ccc4n3)cc2o1` [Compound 420], the half-inhibitory concentration (IC50) in the test on MYB lay within 0.1 to 1 µM; in the test on Target C it was 1 to 10 µM.
As to `Cc1nc2cc(O)c(-c3ccc4nc(N5CCN[C@H](C6CC6)C5)ccc4n3)cc2o1` [Compound 421], the concentration for half-maximal inhibition (IC50) with MYB and in the test on Target C was 0.1 to 1 µM throughout.
`Cc1nc2cc(O)c(-c3ccc4nc(N5CCN[C@@H](C(C)C)C5)ccc4n3)cc2o1` [Compound 422]: the IC50 in the test with MYB lay within 0.1 to 1 µM; in the test with Target C it was 1 to 10 µM.
Consider `Cc1nc2cc(O)c(-c3ccc4nc(N5CCC(N)CC5)ccc4n3)cc2o1` [Compound 424], for which the 50% inhibitory concentration (IC50) with MYB and in the test with Target C was 1 to 10 µM in each case.
Consider `CNC1CCN(c2ccc3nc(-c4cc5oc(C)nc5cc4O)ccc3n2)CC1` [Compound 425], for which the values for the IC50 with MYB and in the test with Target C were 1 to 10 µM and more than 10 µM, respectively.
`Cc1nc2c(C)c(O)c(-c3ccc4nc(N5CC[C@H](NC6CC6)C5)ncc4n3)cc2o1` [Compound 433, 6-{2-[(3S)-3-(cyclopropylamino)pyrrolidin-1-yl]pyrido[3,2-d]pyrimidin-6-yl}-2,4-dimethyl-1,3-benzoxazol-5-ol]: the half-inhibitory concentration (IC50) with MYB and with Target C was 0.1 to 1 µM throughout.
With `Cc1nc2cc(O)c(-c3ccc4nc(N5CC[C@H](NC6CC6)C5)ncc4n3)cc2o1` [Compound 435, 6-{2-[(3S)-3-(cyclopropylamino)pyrrolidin-1-yl]pyrido[3,2-d]pyrimidin-6-yl}-2-methyl-1,3-benzoxazol-5-ol], the concentration for half-maximal inhibition (IC50) with MYB and in the test with Target C was 0.1 to 1 µM throughout.
Regarding `Cc1nc2c(C)c(O)c(-c3ccc4nc(N5CC[C@@H](NC(C)(C)C)C5)ncc4n3)cc2o1` [Compound 436], the IC50 with MYB and with Target C was less than 0.1 µM each time.
`Cc1nc2c(C)c(O)c(-c3ccc4nc(N5CC[C@H](NC(C)(C)C)C5)ncc4n3)cc2o1` [Compound 437]: the 50% inhibitory concentration (IC50) in the test on MYB and in the test on Target C was 0.1 to 1 µM in each case.
Consider `Cc1c(O)c(-c2ccc3nc(N4CC[C@@H](NC5CC5)C4)ncc3n2)cc2cn(C)nc12` [Compound 438, 5-{2-[(3R)-3-(cyclopropylamino)pyrrolidin-1-yl]pyrido[3,2-d]pyrimidin-6-yl}-2,7-dimethylindazol-6-ol], for which the IC50 in the test on MYB and in the test on Target C was 0.1 to 1 µM in each case.
Turning to `Cc1c(O)c(-c2ccc3nc(N4CC[C@H](NC5CC5)C4)ncc3n2)cc2cn(C)nc12` [Compound 439, 5-{2-[(3S)-3-(cyclopropylamino)pyrrolidin-1-yl]pyrido[3,2-d]pyrimidin-6-yl}-2,7-dimethylindazol-6-ol], the IC50 with MYB and with Target C was 0.1 to 1 µM in each case.
In the case of `Cc1nc2c(C)c(O)c(-c3ccc4cc(N5CC[C@@H](NC6CC6)C5)ncc4n3)cc2o1` [Compound 440, 6-{6-[(3R)-3-(cyclopropylamino)pyrrolidin-1-yl]-1,7-naphthyridin-2-yl}-2,4-dimethyl-1,3-benzoxazol-5-ol], the IC50 with MYB and with Target C was 0.1 to 1 µM throughout.
